Results as given in ChEMBL document CHEMBL4304832, “Novel Pyrazole-Containing Compounds Active against Mycobacterium tuberculosis” (ACS Med Chem Lett, 2019).

Tested on: Mycobacterium tuberculosis
Experiment: Antitubercular activity against Mycobacterium tuberculosis H37Rv infected in C57BL/6 mouse assessed as reduction in bacterial load in lungs at 30 mg/kg administered once daily starting from 5 days post infection for 4 consecutive days and measured on day 9
Format: functional

In the case of `COc1c(N2C[C@@H]3CCCN[C@@H]3C2)c(F)cc2c(=O)c(C(=O)O)cn(C3CC3)c12` [MOXIFLOXACIN], the Activity is reported as 3.5 log10CFU.
